According to ChEMBL document CHEMBL4831492, “Design and synthesis of 2-(2-isonicotinoylhydrazineylidene)propanamides as InhA inhibitors with high antitubercular activity” (Eur J Med Chem, 2021):
Values after ≈ are worked out from the molar mass of the structure shown.

Columns and labels:
Format in all cases: functional
[1] = tested on: Mycobacterium tuberculosis; test: Antimycobacterial activity against multi drug-resistant Mycobacterium tuberculosis praha 1 assessed as minimal inhibitory concentration required for complete inhibition of mycobacterial growth incubated for 14 days; conditions: praha 1, 336 h, time 14 day
[2] = tested on: Mycobacterium tuberculosis; test: Antimycobacterial activity against multi drug-resistant Mycobacterium tuberculosis praha 1 assessed as minimal inhibitory concentration required for complete inhibition of mycobacterial growth incubated for 21 days; conditions: praha 1, 504 h, time 21 day
[3] = tested on: Mycobacterium tuberculosis; test: Antimycobacterial activity against multi drug-resistant Mycobacterium tuberculosis praha 4 assessed as minimal inhibitory concentration required for complete inhibition of mycobacterial growth incubated for 14 days; conditions: praha 4, 336 h, time 14 day
[4] = tested on: Mycobacterium tuberculosis; test: Antimycobacterial activity against multi drug-resistant Mycobacterium tuberculosis praha 4 assessed as minimal inhibitory concentration required for complete inhibition of mycobacterial growth incubated for 21 days; conditions: praha 4, 504 h, time 21 day
[5] = tested on: Mycobacterium tuberculosis; test: Antimycobacterial activity against multi drug-resistant Mycobacterium tuberculosis praha 131 assessed as minimal inhibitory concentration required for complete inhibition of mycobacterial growth incubated for 14 days; conditions: praha 131, 336 h, time 14 day
[6] = tested on: Mycobacterium tuberculosis; test: Antimycobacterial activity against multi drug-resistant Mycobacterium tuberculosis praha 131 assessed as minimal inhibitory concentration required for complete inhibition of mycobacterial growth incubated for 21 days; conditions: praha 131, 504 h, time 21 day
[7] = tested on: Mycobacterium tuberculosis; test: Antimycobacterial activity against multi drug-resistant Mycobacterium tuberculosis 234/2005 assessed as minimal inhibitory concentration required for complete inhibition of mycobacterial growth incubated for 14 days; conditions: 234/2005, 336 h, time 14 day
[8] = tested on: Mycobacterium tuberculosis; test: Antimycobacterial activity against multi drug-resistant Mycobacterium tuberculosis 234/2005 assessed as minimal inhibitory concentration required for complete inhibition of mycobacterial growth incubated for 21 days; conditions: 234/2005, 504 h, time 21 day
[9] = tested on: Mycobacterium tuberculosis; test: Antimycobacterial activity against multi drug-resistant Mycobacterium tuberculosis 9449/2007 assessed as minimal inhibitory concentration required for complete inhibition of mycobacterial growth incubated for 14 days; conditions: 9449/2007, 336 h, time 14 day
[10] = tested on: Mycobacterium tuberculosis; test: Antimycobacterial activity against multi drug-resistant Mycobacterium tuberculosis 9449/2007 assessed as minimal inhibitory concentration required for complete inhibition of mycobacterial growth incubated for 21 days; conditions: 9449/2007, 504 h, time 21 day
[11] = tested on: Mycobacterium tuberculosis; test: Antimycobacterial activity against multi drug-resistant Mycobacterium tuberculosis 7357/1998 assessed as minimal inhibitory concentration required for complete inhibition of mycobacterial growth incubated for 14 days; conditions: 7357/1998, 336 h, time 14 day
[12] = tested on: Mycobacterium tuberculosis; test: Antimycobacterial activity against multi drug-resistant Mycobacterium tuberculosis 7357/1998 assessed as minimal inhibitory concentration required for complete inhibition of mycobacterial growth incubated for 21 days; conditions: 7357/1998, 504 h, time 21 day
[13] = tested on: Mycobacterium tuberculosis; test: Antimycobacterial activity against multi drug-resistant Mycobacterium tuberculosis 8666/2010 assessed as minimal inhibitory concentration required for complete inhibition of mycobacterial growth incubated for 14 days; conditions: 8666/2010, 336 h, time 14 day
[14] = tested on: Mycobacterium tuberculosis; test: Antimycobacterial activity against multi drug-resistant Mycobacterium tuberculosis 8666/2010 assessed as minimal inhibitory concentration required for complete inhibition of mycobacterial growth incubated for 21 days; conditions: 8666/2010, 504 h, time 21 day
[15] = tested on: Mycobacterium tuberculosis; test: Antimycobacterial activity against Mycobacterium tuberculosis H37Ra overexpressing InhA assessed as bacterial growth inhibition incubated for 28 days by drop dilution method; conditions: 672 h, time 28 day
[16] = tested on: Mycobacterium tuberculosis; test: Antimycobacterial activity against Mycobacterium tuberculosis H37Ra overexpressing KatGs-meg assessed as bacterial growth inhibition incubated for 28 days by drop dilution method; conditions: 672 h, time 28 day

SMILES | MIC [1] [µM] | MIC [2] [µM] | MIC [3] [µM] | MIC [4] [µM] | MIC [5] [µM] | MIC [6] [µM] | MIC [7] [µM] | MIC [8] [µM] | MIC [9] [µM] | MIC [10] [µM] | MIC [11] [µM] | MIC [12] [µM] | MIC [13] [µM] | MIC [14] [µM] | MIC [15] [µM] | MIC [16] [µM]
C/C(=N\NC(=O)c1ccncc1)C(=O)Nc1ccc(I)cc1 | 16 (≈ 6.53 µg/mL) | 32 (≈ 13.1 µg/mL) | 16 (≈ 6.53 µg/mL) | 32 (≈ 13.1 µg/mL) | 8 (≈ 3.27 µg/mL) | 16 (≈ 6.53 µg/mL) | 16 (≈ 6.53 µg/mL) | 16 (≈ 6.53 µg/mL) | 8 (≈ 3.27 µg/mL) | 16 (≈ 6.53 µg/mL) | 16 (≈ 6.53 µg/mL) | 32 (≈ 13.1 µg/mL) | 8 (≈ 3.27 µg/mL) | 16 (≈ 6.53 µg/mL) | 12.5 (≈ 5.1 µg/mL) | 0.25 (≈ 0.102 µg/mL)
C/C(=N\NC(=O)c1ccncc1)C(=O)Nc1cccc(Cl)c1 | 32 (≈ 10.1 µg/mL) | 32 (≈ 10.1 µg/mL) | 32 (≈ 10.1 µg/mL) | 32 (≈ 10.1 µg/mL) | 32 (≈ 10.1 µg/mL) | 64 (≈ 20.3 µg/mL) | 64 (≈ 20.3 µg/mL) | 64 (≈ 20.3 µg/mL) | 32 (≈ 10.1 µg/mL) | 64 (≈ 20.3 µg/mL) | 32 (≈ 10.1 µg/mL) | 32 (≈ 10.1 µg/mL) | 16 (≈ 5.07 µg/mL) | 32 (≈ 10.1 µg/mL) |  | 
C/C(=N\NC(=O)c1ccncc1)C(=O)Nc1ccc(F)cc1 | 64 (≈ 19.2 µg/mL) | 64 (≈ 19.2 µg/mL) | 32 (≈ 9.61 µg/mL) | 64 (≈ 19.2 µg/mL) | 64 (≈ 19.2 µg/mL) | 64 (≈ 19.2 µg/mL) | 64 (≈ 19.2 µg/mL) | 125 (≈ 37.5 µg/mL) | 32 (≈ 9.61 µg/mL) | 32 (≈ 9.61 µg/mL) | 64 (≈ 19.2 µg/mL) | 64 (≈ 19.2 µg/mL) | 32 (≈ 9.61 µg/mL) | 32 (≈ 9.61 µg/mL) |  | 
C/C(=N\NC(=O)c1ccncc1)C(=O)Nc1ccc(Cl)c(Cl)c1 | 64 (≈ 22.5 µg/mL) | 125 (≈ 43.9 µg/mL) | 64 (≈ 22.5 µg/mL) | 125 (≈ 43.9 µg/mL) | 32 (≈ 11.2 µg/mL) | 64 (≈ 22.5 µg/mL) | 64 (≈ 22.5 µg/mL) | 125 (≈ 43.9 µg/mL) | 32 (≈ 11.2 µg/mL) | 32 (≈ 11.2 µg/mL) | 64 (≈ 22.5 µg/mL) | 125 (≈ 43.9 µg/mL) | 32 (≈ 11.2 µg/mL) | 32 (≈ 11.2 µg/mL) |  | 
C/C(=N\NC(=O)c1ccncc1)C(=O)Nc1ccc(C(F)(F)F)cc1 | 32 (≈ 11.2 µg/mL) | 64 (≈ 22.4 µg/mL) | 32 (≈ 11.2 µg/mL) | 64 (≈ 22.4 µg/mL) | 64 (≈ 22.4 µg/mL) | 64 (≈ 22.4 µg/mL) | 32 (≈ 11.2 µg/mL) | 64 (≈ 22.4 µg/mL) | 32 (≈ 11.2 µg/mL) | 32 (≈ 11.2 µg/mL) | 32 (≈ 11.2 µg/mL) | 64 (≈ 22.4 µg/mL) | 32 (≈ 11.2 µg/mL) | 32 (≈ 11.2 µg/mL) |  | 
C/C(=N\NC(=O)c1ccncc1)C(=O)Nc1ccc(Cl)cc1 | 32 (≈ 10.1 µg/mL) | 32 (≈ 10.1 µg/mL) | 32 (≈ 10.1 µg/mL) | 32 (≈ 10.1 µg/mL) | 32 (≈ 10.1 µg/mL) | 64 (≈ 20.3 µg/mL) | 32 (≈ 10.1 µg/mL) | 64 (≈ 20.3 µg/mL) | 32 (≈ 10.1 µg/mL) | 64 (≈ 20.3 µg/mL) | 32 (≈ 10.1 µg/mL) | 32 (≈ 10.1 µg/mL) | 8 (≈ 2.53 µg/mL) | 16 (≈ 5.07 µg/mL) |  | 
C/C(=N\NC(=O)c1ccncc1)C(=O)Nc1ccc(Br)cc1 | 32 (≈ 11.6 µg/mL) | 32 (≈ 11.6 µg/mL) | 32 (≈ 11.6 µg/mL) | 32 (≈ 11.6 µg/mL) | 32 (≈ 11.6 µg/mL) | 64 (≈ 23.1 µg/mL) | 32 (≈ 11.6 µg/mL) | 64 (≈ 23.1 µg/mL) | 32 (≈ 11.6 µg/mL) | 64 (≈ 23.1 µg/mL) | 32 (≈ 11.6 µg/mL) | 32 (≈ 11.6 µg/mL) | 32 (≈ 11.6 µg/mL) | 32 (≈ 11.6 µg/mL) |  | 
C/C(=N\NC(=O)c1ccncc1)C(=O)Nc1ccc(OC(F)(F)F)cc1 | 64 (≈ 23.4 µg/mL) | 64 (≈ 23.4 µg/mL) | 32 (≈ 11.7 µg/mL) | 64 (≈ 23.4 µg/mL) | 64 (≈ 23.4 µg/mL) | 64 (≈ 23.4 µg/mL) | 32 (≈ 11.7 µg/mL) | 32 (≈ 11.7 µg/mL) | 32 (≈ 11.7 µg/mL) | 64 (≈ 23.4 µg/mL) | 32 (≈ 11.7 µg/mL) | 64 (≈ 23.4 µg/mL) | 32 (≈ 11.7 µg/mL) | 64 (≈ 23.4 µg/mL) | 6 (≈ 2.2 µg/mL) | 0.15 (≈ 0.0549 µg/mL)
